Patent publication US6365178B1, “Method of making pressure sensitive adhesive matrix patches for transdermal drug delivery using hydrophilic salts of drugs and hydrophobic pressure sensitive adhesive dispersions” (priority 1996, dated 2002)
Where a name gives a salt, the structure may show the parent alone. Blank lines part the entries; values can stand above or below the compound they belong to.

Legend:
[1] = Dissolution of drug substance in liquid adhesive or solvent during matrix preparation; type: physicochemical; conditions: for Dissolution in organic solvent-based adhesives / Dissolution in water-based adhesive dispersions: Example 1, 5% (w/w) in dried film; for Dissolution in organic solvent-based adhesives: MA-24, DUROTAK 2979; for Dissolution in water-based adhesive dispersions: PIB-500, NACOR 72-9965; for Dissolution in organic solvent system: equivalent to 1% (w/w) tromethamine salt; for Dissolution in enhancer-acrylic adhesive solution: Example 6, DURO-TAK 2852 with propylene glycol/isopropyl myristate, 10% ketorolac on free acid basis
Description: Pressure sensitive adhesive matrix systems described herein were prepared as follows. First, the solids content of a water-based or solvent-based adhesive in liquid form was determined by placing a known weight of liquid in a weighed aluminum dish and evaporating the solvents overnight in a 70° C. convection oven. The content of solid adhesive in the liquid was calculated by dividing the adhesive solid weight after drying by the initial total liquid weight. In some cases, the polyisobutylene (PIB) adhesives were prepared from polyisobutylene solids. […] Next, a weighed quantity of adhesive liquid was added to a glass bottle, and the solid adhesive weight was calculated from the known solid fraction of the given adhesive liquid. The drug substance (hydrophilic salt or free drug form) was weighed and added to the adhesive solution in a quantity necessary to achieve a selected dry matrix film composition. The liquid containing the adhesive polymer drug substance was then mixed overnight. […] The cast was dried in a 70° C. convection oven for 15-30 minutes to yield a dried matrix onto which an 0.08 mm thick polyethylene backing film was laminated. These matrix systems were then used to conduct in vitro skin flux experiments as described below.

[2] = Visual/microscopic observation of matrix films for drug crystals after preparation and on storage (physical stability); type: physicochemical; conditions: for Drug crystals in dried films: organic solvent-based adhesives MA-24, DUROTAK 2979; for Drug crystals in dried matrix: Example 5; for Drug crystals in adhesive matrix/laminate: Example 6, DURO-TAK 2852 with propylene glycol/isopropyl myristate, 10% ketorolac on free acid basis, visual and microscopic
Description: As used herein, “physical stability” of a drug in a matrix patch includes the lack of recrystallization of the drug in the dried adhesive layer of the patch.
Pressure sensitive adhesive matrix systems described herein were prepared as follows. First, the solids content of a water-based or solvent-based adhesive in liquid form was determined by placing a known weight of liquid in a weighed aluminum dish and evaporating the solvents overnight in a 70° C. convection oven. The content of solid adhesive in the liquid was calculated by dividing the adhesive solid weight after drying by the initial total liquid weight. In some cases, the polyisobutylene (PIB) adhesives were prepared from polyisobutylene solids. The solid PIB was first dissolved in heptane to achieve a final solid content of about 30% by weight, and then the exact solid content was determined as described above. Next, a weighed quantity of adhesive liquid was added to a glass bottle, and the solid adhesive weight was calculated from the known solid fraction of the given adhesive liquid. The drug substance (hydrophilic salt or free drug form) was weighed and added to the adhesive solution in a quantity necessary to achieve a selected dry matrix film composition. The liquid containing the adhesive polymer drug substance was then mixed overnight. […] After mixing, approximately 8 ml of the solution was dispensed on a silanized polyester release liner and film cast using a casting knife with a gap size appropriate to achieve a final dried thickness of approximately 0.05-0.1 mm. The cast was dried in a 70° C. convection oven for 15-30 minutes to yield a dried matrix onto which an 0.08 mm thick polyethylene backing film was laminated. These matrix systems were then used to conduct in vitro skin flux experiments as described below. […]
The systems manufactured with the salt and the water-based adhesive dispersions were stored at room temperature and examined using optical microscopy at 100× magnification for the presence of drug crystals.

[3] = In vitro skin flux, modified Franz non-jacketed diffusion cells; type: in vitro ADME, human; conditions: Example 6, DURO-TAK 2852 patch; for Average cumulative amount of ketorolac released after 24 hours / In vitro skin flux of ketorolac: 10% ketorolac on free acid basis, 8% enhancer (propylene glycol/isopropyl myristate); for In vitro skin flux of ketorolac: Mean±SD, n=2/10 skins/diffusion cells
Description: In vitro skin flux studies were conducted using human cadaver epidermal membrane in modified Franz non-jacketed diffusion cells. […] This method involves the exposure of the fullthickness skin to water at 60° C. for 60 seconds. After this period, the epidermal membrane was gently peeled from the dermis and stored in aluminum foil at −5 ° C. Prior to skin permeation experiments, the silanized release liner was removed from the adhesive matrix system, and the adhesive was affixed to the stratum corneum side of the thawed epidermal membrane, which was then cut to an appropriate size and placed between the two halves of the diffusion cell with the stratum corneum facing the donor compartment.
The receiver compartment was filled with water or an aqueous buffer appropriate to maintain sink conditions for the drug. All receiver media included 0.02% (w/w) sodium azide to inhibit bacterial growth. The diffusion cell was placed in a temperature controlled circulating water bath calibrated to maintain the surface temperature of the skin at 32° C. The receiver compartment was constantly stirred by a magnetic stir bar in the receiver compartment agitated by a magnetic stirring module placed under the water bath. At predetermined sampling intervals, the entire contents of the receiver compartment were collected for drug quantitation, and the receiver compartment was filled with fresh receiver solution, taking care to eliminate any air bubbles at the skin/solution interface.
The cumulative amount of drug permeated per unit area at any time t (Qt, μg/cm^2) was determined according to the following equation: [formula]
where Ct (μg/cm^3) is the concentration of the receiver compartment at sample time t (hours), V is the volume of the receiver compartment of the diffusion cell (6.3 cm^3), and A is the diffusional area of the cell (0.64 cm^2).

[4] = disclosed in U.S. Pat. No. 5,589,498 (Example 2); cited from earlier work
[5] = Example 2, NACOR 72-9965, 1% or 2% (w/w)
[6] = Example 2, TSR and DURO-TAK 2516, 1% or 2% (w/w)
[7] = 5% (w/w) drug in Lord PIB-500 (water-based PIB) matrix, room temperature, microscopic
[8] = TSR, equivalent to 1% (w/w) tromethamine salt

Structure (SMILES): O=C1CC2(CCCC2)CC(=O)N1CCCCN1CCN(c2ncccn2)CC1 [Buspirone HCl, buspirone hydrochloride]
Dissolution in organic solvent-based adhesives ([1]; hydrochloride): did not dissolve
Dissolution in water-based adhesive dispersions ([1]; hydrochloride): dissolved readily
Dissolution in water-based adhesive dispersion [1, 5]: dissolved completely
Dissolution in organic solvents of solvent-based adhesives [1, 6]: did not dissolve completely
Dissolution in acetone ([1]; Example 3, 0.70 g in 9.2 g acetone): did not completely dissolve
Dissolution in acetone/isocetyl alcohol mixture ([1]; Example 3, 0.70 g, 9.2 g acetone, 6.1 g isocetyl alcohol): did not completely dissolve
Dissolution in acetone/isocetyl alcohol/PIB adhesive mixture ([1]; Example 3, blended with MA-24 organic solvent-based PIB adhesive): did not completely dissolve
Results: dissolution in solvent and in solvent/isocetyl alcohol/PIB adhesive mixture ([1]; Table 6, Acetone 12.0 g, 0.7 g drug): Buspirone hydrochloride (0.7 g) did not dissolve in
Results: effect of addition of solvent solution PIB adhesive ([1]; Table 6, Chloroform): resulted in precipitation of buspirone, and the resulting
Results: dissolution in solvent and solvent/isocetyl alcohol mixture ([1]; Table 6, Chloroform 12.0 g, 0.7 g drug): Buspirone hydrochloride (0.7 g) dissolved in chloroform
Results: dissolution in solvent and in solvent/isocetyl alcohol/PIB adhesive mixture ([1]; Table 6, Ethyl acetate 12.0 g, 0.7 g drug): Buspirone hydrochloride (0.7 g) did not dissolve in
Results: behaviour of solvent/isocetyl alcohol/PIB adhesive mixture ([1]; Table 6, Methanol): phase separated
Results: dissolution in solvent ([1]; Table 6, Methanol 12.0 g, 0.7 g drug): Buspirone hydrochloride (0.7 g) dissolved in methanol
Results: dissolution in solvent and in solvent/isocetyl alcohol/PIB adhesive mixture ([1]; Table 6, Toluene 12.0 g, 0.7 g drug): Buspirone hydrochloride (0.7 g) did not dissolve in
Results: behaviour of solvent/isocetyl alcohol/adhesive solution ([1]; Table 6, Water): phase separated. The resulting cast contained distinct
Results: dissolution in solvent ([1]; Table 6, Water 1.5 g, 0.7 g drug): Buspirone hydrochloride (0.7 g) dissolved in water
Observations: no crystals observed after [2, 7]: No crystals observed after 7 weeks
Observations: drug crystals ([2]; 5% (w/w) drug in MA-24 (organic solvent-based PIB) matrix, immediately after preparation): crystals present
Drug crystals in dried films ([2]; Example 1, 5% (w/w), hydrochloride): filled with drug crystals
Drug crystals in dried film ([2]; Example 1, water-based adhesive dispersions PIB-500, NACOR 72-9965, 5% (w/w)): no crystals were found
Drug crystals in dried adhesive matrix [2, 5]: visibly free of drug crystals
Drug crystals in final dried casts [2, 6]: contained visible solid drug crystals
Drug crystals in laminate ([2]; PIB adhesive (MA-24)/buspirone hydrochloride/isocetyl alcohol 86/1.5/12.5% (w/w), naked eye and microscopic): filled with buspirone crystals
Results: buspirone crystals in resulting cast ([2]; Table 6, Chloroform): cast contained extensive buspirone crystals.
Results: buspirone crystals in resulting cast ([2]; Table 6, Ethyl acetate): resulting cast contained extensive buspirone crystals.
Results: casting of mixture ([2]; Table 6, Methanol, adhesive formed a gel-like ball): impossible to cast
Results: buspirone crystals in resulting cast ([2]; Table 6, Toluene): contained extensive buspirone crystals.
Results: buspirone crystallization in resulting cast ([2]; Table 6, Water, buspirone only in water-rich phase): extensively within 24 hours after casting.

Structure (SMILES): O=C1CC2(CCCC2)CC(=O)N1CCCCN1CCN(c2ncccn2)CC1 [Buspirone Free Base, buspirone]
Dissolution in organic solvent-based adhesives [1]: dissolved readily
Dissolution in water-based adhesive dispersions [1]: water insoluble
Observations: crystals form within [2, 7]: Crystals form within 3 days
Observations: crystals form within ([2]; 5% (w/w) drug in MA-24 (organic solvent-based PIB) matrix, room temperature, microscopic): Crystals form within 11 days
Drug crystals in dried films ([2]; Example 1, 5% (w/w)): visibly homogeneous and free from drug crystals
Recrystallization of buspirone in laminate ([2]; PIB adhesive (MA-24)/buspirone free base/isocetyl alcohol 86/1.5/12.5% (w/w), room temperature and 40° C./70%RH for 3 weeks, microscopic): No recrystallization of buspirone occurred

Structure (SMILES): O=C(c1ccccc1)c1ccc2n1CCC2C(=O)O (centres unmarked) [Ketorolac free acid, ketorolac]
24 hour cumulative release [4]: 461.7±83.8
Flux [4]: 21.6±3.6 μg/cm^2/h
Dissolution in organic solvent system ([1]; Example 5, TSR): completely dissolved
Dissolution in enhancer-acrylic adhesive solution [1]: formed a homogeneous solution
Average cumulative amount of ketorolac released after 24 hours [3]: 583.3±94.6 μg/cm^2
In vitro skin flux of ketorolac [3]: 25.4±4.2 μg/cm^2/h
Drug crystals in dried matrix [2, 8]: visually free of any crystals
Drug crystals in adhesive matrix/laminate [2]: visibly homogeneous and free from crystals

The next lines start with results.

Dissolution in organic solvents ([1]; Example 8, TSR, 12% (w/w)): dissolved readily
Drug crystals in dry film ([2]; Example 8, TSR, 12% (w/w), visible and microscopic): free from drug crystals
Structure (SMILES): CC(=O)CC(c1ccccc1)c1c(O)c2ccccc2oc1=O (centres unmarked) [Warfarin free drug, warfarin]

Dissolution in water/emulsion system ([1]; Example 5, NACOR 72-9965, 1% (w/w)): dissolved completely
Dissolution in organic solvent system ([1]; Example 5, TSR): did not completely dissolve
Dissolution in enhancer-acrylic adhesive solution [1]: does not dissolve
Average cumulative amount of ketorolac released after 24 hours [3]: 171.6±49.0 μg/cm^2
In vitro skin flux of ketorolac [3]: 7.5±2.2 μg/cm^2/h
Ketorolac flux as % of the flux observed with the system prepared with the free acid ([3]; 14.9% ketorolac tromethamine): 30%
Drug crystals in dried matrix ([2]; NACOR 72-9965, 1% (w/w)): free of drug crystals
Drug crystals in dried matrix [2, 8]: contained crystallized drug
Structure (SMILES): O=C(c1ccccc1)c1ccc2n1CCC2C(=O)O (centres unmarked) [ketorolac tromethamine]
Drug crystals in adhesive matrix/laminate [2]: visibly cloudy and extensive crystals were visible
